From BindingDB's records for doi:10.1074/jbc.M112.341321 (Council of Scientific and Industrial Research (Csir) Indian …, 2012)

Key:
Assay in all cases: Tautomerase Activity Assay
[1] = target: T1, Macrophage migration inhibitory factor (Homo sapiens, UniProt P14174)
T1 sequence (P14174 whole entry): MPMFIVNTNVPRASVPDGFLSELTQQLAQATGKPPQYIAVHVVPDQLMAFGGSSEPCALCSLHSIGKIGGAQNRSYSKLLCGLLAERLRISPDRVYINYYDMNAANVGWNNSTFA
From the text: (§1) The tautomerase activity of MIFs was monitored by following the tautomerization of L-dopachrome methyl ester by the recombinant MIFs in the presence or absence of increasing concentrations of all six limonoids extracted from neem.

[2] = target: T2, Macrophage migration inhibitory factor (Plasmodium falciparum (isolate 3D7), UniProt Q8I5C5)
T2 sequence (Q8I5C5 whole entry): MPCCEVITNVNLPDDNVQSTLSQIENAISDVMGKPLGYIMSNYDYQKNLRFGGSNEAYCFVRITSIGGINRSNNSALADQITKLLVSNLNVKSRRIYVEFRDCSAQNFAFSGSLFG
From the text: as §1

[3] = target: T3, Macrophage migration inhibitory factor-like protein (Plasmodium yoelii yoelii, UniProt Q1HEA2)
T3 sequence (Q1HEA2 whole entry): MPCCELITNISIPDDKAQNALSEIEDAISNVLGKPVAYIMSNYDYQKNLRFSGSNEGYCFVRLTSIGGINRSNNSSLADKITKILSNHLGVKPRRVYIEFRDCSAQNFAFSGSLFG
From the text: as §1

| SMILES | IC50 [1] [µM] | IC50 [2] [µM] | IC50 [3] [µM] |
| --- | --- | --- | --- |
| CC(=O)O[C@@H]1C[C@H]2C(C)(C)C(=O)C=C[C@]2(C)[C@H]2CC[C@]3(C)C(=CC(=O)[C@H]3c3ccoc3)[C@@]21C [Azadiradione] | 35.2 | 45.6 | 43 |
| C/C=C(\C)C(=O)O[C@H]1C[C@@H](OC(C)=O)[C@@]2(C)CO[C@H]3[C@H]4O[C@@H]5C[C@@H](c6ccoc6)C(C)=C5[C@@]4(C)[C@H](CC(=O)OC)[C@]1(C)[C@@H]32 [Salannin] | 85.3 | 89.5 | 95.2 |
| CC(=O)O[C@@H]1C[C@H]2C(C)(C)C(=O)C=C[C@]2(C)[C@H]2CC[C@@]3(C)[C@H](c4ccoc4)C(=O)[C@H]4O[C@]43[C@@]21C [Epoxyazadiradione] | – | 9.5 | 9.8 |
| COC(=O)C[C@H]1[C@]2(C)C3=C(C)[C@H](c4ccoc4)C[C@H]3O[C@@H]2[C@H](OC(C)=O)[C@@H]2[C@]1(C)C(=O)C=C[C@@]2(C)C(=O)OC [Nimbin] | 17.5 | 22.5 | 22.4 |
